Measurements reported in the supplement of paper PMC10627819.

Experiments:
Experiment in all cases: fitness (endpoint OD595 vs no drug) (fraction); higher = more growth
S. aureus DSM 20231 = system: S. aureus DSM 20231
How it was run: (§1)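 Background-subtracted growth curves were the basis for fitness, taken as the optical density at entry into stationary phase over the robust mean of no-drug control wells. A cap of 1 was applied. The curves came from OD595 readings every 30 min for 14 h at 37 °C, in 384-well plates seeded at OD595 0.01 with 30 µl, or 55 µl for S. pneumoniae.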

S. pneumoniae D39V = system: S. pneumoniae D39V
How it was run: as §1

B. subtilis 168 = system: B. subtilis 168
How it was run: as §1

S. aureus Newman = system: S. aureus Newman
How it was run: as §1

CCC[C@@H]1C[C@@H](C(=O)N[C@@H]([C@H]2O[C@H](SC)[C@H](O)[C@@H](O)[C@H]2O)[C@H](C)Cl)N(C)C1 [Clindamycin] + CN(C)[C@@H]1C(O)=C(C(N)=O)C(=O)[C@@]2(O)C(O)=C3C(=O)c4c(O)ccc(Cl)c4[C@@](C)(O)[C@H]3C[C@@H]12 [Chlortetracycline]
fitness, one replicate
Settings	first compound 0.0039 µg/mL	first compound 0.0078 µg/mL	first compound 0.0156 µg/mL	first compound 0.0312 µg/mL	first compound 0.0625 µg/mL	first compound 0.125 µg/mL
B. subtilis 168, partner 0.0475 µg/mL	0.996	0.88	0.814	–	–	–
B. subtilis 168, partner 0.095 µg/mL	0.911	0.831	0.721	–	–	–
B. subtilis 168, partner 0.19 µg/mL	0.779	0.697	0.633	–	–	–
S. aureus DSM 20231, partner 0.006 µg/mL	–	–	–	0.198	0.0507	0.029

Settings	fitness
B. subtilis 168, first compound 0.0625 µg/mL, partner 0.0475 µg/mL	0.407
B. subtilis 168, first compound 0.0625 µg/mL, partner 0.095 µg/mL	0.362
B. subtilis 168, first compound 0.0625 µg/mL, partner 0.19 µg/mL	0.0596
B. subtilis 168, first compound 0.125 µg/mL, partner 0.0475 µg/mL	0.352
B. subtilis 168, first compound 0.125 µg/mL, partner 0.095 µg/mL	0.0555
B. subtilis 168, first compound 0.125 µg/mL, partner 0.19 µg/mL	0.0594
B. subtilis 168, first compound 0.25 µg/mL, partner 0.0475 µg/mL	0.0818
B. subtilis 168, first compound 0.25 µg/mL, partner 0.095 µg/mL	0.0386
B. subtilis 168, first compound 0.25 µg/mL, partner 0.19 µg/mL	0.0515
S. aureus DSM 20231, first compound 0.0312 µg/mL, partner 0.012 µg/mL	0.0617
S. aureus DSM 20231, first compound 0.0312 µg/mL, partner 0.024 µg/mL	0.038
S. aureus DSM 20231, first compound 0.0312 µg/mL, partner 0.048 µg/mL	0.0237
S. aureus DSM 20231, first compound 0.0625 µg/mL, partner 0.012 µg/mL	0.032
S. aureus DSM 20231, first compound 0.0625 µg/mL, partner 0.024 µg/mL	0.0211
S. aureus DSM 20231, first compound 0.0625 µg/mL, partner 0.048 µg/mL	0.0234
S. aureus DSM 20231, first compound 0.125 µg/mL, partner 0.012 µg/mL	0.0303
S. aureus DSM 20231, first compound 0.125 µg/mL, partner 0.024 µg/mL	0.0207
S. aureus DSM 20231, first compound 0.125 µg/mL, partner 0.048 µg/mL	0.0343
S. pneumoniae D39V, first compound 0.0125 µg/mL, partner 0.012 µg/mL	0.511
S. pneumoniae D39V, first compound 0.0125 µg/mL, partner 0.024 µg/mL	0.383
S. pneumoniae D39V, first compound 0.0125 µg/mL, partner 0.048 µg/mL	0.205
S. pneumoniae D39V, first compound 0.015 µg/mL, partner 0.375 µg/mL	0.0214
S. pneumoniae D39V, first compound 0.015 µg/mL, partner 0.75 µg/mL	0.0514
S. pneumoniae D39V, first compound 0.015 µg/mL, partner 1.5 µg/mL	0.0726
S. pneumoniae D39V, first compound 0.025 µg/mL, partner 0.012 µg/mL	0.334
S. pneumoniae D39V, first compound 0.025 µg/mL, partner 0.024 µg/mL	0.216
S. pneumoniae D39V, first compound 0.025 µg/mL, partner 0.048 µg/mL	0.122
S. pneumoniae D39V, first compound 0.03 µg/mL, partner 0.375 µg/mL	0.0643
S. pneumoniae D39V, first compound 0.03 µg/mL, partner 0.75 µg/mL	0.0687
S. pneumoniae D39V, first compound 0.03 µg/mL, partner 1.5 µg/mL	0.0605
S. pneumoniae D39V, first compound 0.05 µg/mL, partner 0.012 µg/mL	0.128
S. pneumoniae D39V, first compound 0.05 µg/mL, partner 0.024 µg/mL	0.13
S. pneumoniae D39V, first compound 0.05 µg/mL, partner 0.048 µg/mL	0.146
S. pneumoniae D39V, first compound 0.06 µg/mL, partner 0.375 µg/mL	0.0503
S. pneumoniae D39V, first compound 0.06 µg/mL, partner 0.75 µg/mL	0.0714
S. pneumoniae D39V, first compound 0.06 µg/mL, partner 1.5 µg/mL	0.0678

CCC[C@@H]1C[C@@H](C(=O)N[C@@H]([C@H]2O[C@H](SC)[C@H](O)[C@@H](O)[C@H]2O)[C@H](C)Cl)N(C)C1 [Clindamycin] + CO[C@@]12[C@H](COC(N)=O)C3=C(C(=O)C(C)=C(N)C3=O)N1C[C@@H]1N[C@@H]12 [Mitomycin C]
Settings	fitness
S. aureus DSM 20231, first compound 0.0312 µg/mL, partner 0.0312 µg/mL	0.466
S. aureus DSM 20231, first compound 0.0312 µg/mL, partner 0.0625 µg/mL	0.35
S. aureus DSM 20231, first compound 0.0625 µg/mL, partner 0.0156 µg/mL	0.149
S. aureus DSM 20231, first compound 0.0625 µg/mL, partner 0.0312 µg/mL	0.117
S. aureus DSM 20231, first compound 0.0625 µg/mL, partner 0.0625 µg/mL	0.103
S. aureus DSM 20231, first compound 0.125 µg/mL, partner 0.0156 µg/mL	0.0347
S. aureus DSM 20231, first compound 0.125 µg/mL, partner 0.0312 µg/mL	0.0369
S. aureus DSM 20231, first compound 0.125 µg/mL, partner 0.0625 µg/mL	0.083
S. aureus Newman, first compound 0.0312 µg/mL, partner 0.0156 µg/mL	0.537
S. aureus Newman, first compound 0.0312 µg/mL, partner 0.0312 µg/mL	0.483
S. aureus Newman, first compound 0.0312 µg/mL, partner 0.0625 µg/mL	0.412
S. aureus Newman, first compound 0.0625 µg/mL, partner 0.0156 µg/mL	0.421
S. aureus Newman, first compound 0.0625 µg/mL, partner 0.0312 µg/mL	0.355
S. aureus Newman, first compound 0.0625 µg/mL, partner 0.0625 µg/mL	0.243
S. aureus Newman, first compound 0.125 µg/mL, partner 0.0156 µg/mL	0.138
S. aureus Newman, first compound 0.125 µg/mL, partner 0.0312 µg/mL	0.163
S. aureus Newman, first compound 0.125 µg/mL, partner 0.0625 µg/mL	0.0658
S. pneumoniae D39V, first compound 0.0125 µg/mL, partner 0.002 µg/mL	0.651
S. pneumoniae D39V, first compound 0.0125 µg/mL, partner 0.004 µg/mL	0.593
S. pneumoniae D39V, first compound 0.0125 µg/mL, partner 0.008 µg/mL	0.495
S. pneumoniae D39V, first compound 0.015 µg/mL, partner 0.001075 µg/mL	0.912
S. pneumoniae D39V, first compound 0.015 µg/mL, partner 0.00215 µg/mL	0.889
S. pneumoniae D39V, first compound 0.015 µg/mL, partner 0.0043 µg/mL	0.752
S. pneumoniae D39V, first compound 0.025 µg/mL, partner 0.002 µg/mL	0.36
S. pneumoniae D39V, first compound 0.025 µg/mL, partner 0.004 µg/mL	0.328
S. pneumoniae D39V, first compound 0.025 µg/mL, partner 0.008 µg/mL	0.322
S. pneumoniae D39V, first compound 0.03 µg/mL, partner 0.001075 µg/mL	0.708
S. pneumoniae D39V, first compound 0.03 µg/mL, partner 0.00215 µg/mL	0.689
S. pneumoniae D39V, first compound 0.03 µg/mL, partner 0.0043 µg/mL	0.57
S. pneumoniae D39V, first compound 0.05 µg/mL, partner 0.002 µg/mL	0.187
S. pneumoniae D39V, first compound 0.05 µg/mL, partner 0.004 µg/mL	0.144
S. pneumoniae D39V, first compound 0.05 µg/mL, partner 0.008 µg/mL	0.155
S. pneumoniae D39V, first compound 0.06 µg/mL, partner 0.001075 µg/mL	0.453
S. pneumoniae D39V, first compound 0.06 µg/mL, partner 0.00215 µg/mL	0.396
S. pneumoniae D39V, first compound 0.06 µg/mL, partner 0.0043 µg/mL	0.306

O=C(O[C@@H]1Cc2c(O)cc(O)cc2O[C@@H]1c1cc(O)c(O)c(O)c1)c1cc(O)c(O)c(O)c1 [EGCG] + CC1=C(C(=O)O)N2C(=O)[C@@H](NC(=O)[C@H](N)c3ccccc3)[C@H]2SC1 [Cephalexin]
fitness
Settings	first compound 6.25 µg/mL	first compound 12.5 µg/mL	first compound 25 µg/mL	first compound 50 µg/mL
B. subtilis 168, partner 0.125 µg/mL	0.875	0.51	0.222	–
B. subtilis 168, partner 0.25 µg/mL	0.988	–	–	–
B. subtilis 168, partner 0.5 µg/mL	0.919	–	–	–
S. aureus Newman, partner 0.25 µg/mL	–	0.737	0.682	0.775
S. aureus Newman, partner 0.5 µg/mL	–	0.776	0.762	0.739
S. aureus Newman, partner 1 µg/mL	–	0.796	0.806	0.79
S. pneumoniae D39V, partner 1 µg/mL	–	0.669	0.72	–
S. pneumoniae D39V, partner 2 µg/mL	–	0.0733	0.2	0.111
S. pneumoniae D39V, partner 4 µg/mL	–	0.0244	0.0566	0.0515

fitness, one replicate
Settings	first compound 6.25 µg/mL	first compound 12.5 µg/mL	first compound 25 µg/mL	first compound 50 µg/mL
B. subtilis 168, partner 1 µg/mL	0.993	0.862	0.697	–
S. pneumoniae D39V, partner 0.125 µg/mL	–	0.926	0.96	≥ 1
S. pneumoniae D39V, partner 0.25 µg/mL	–	0.902	0.919	0.937
S. pneumoniae D39V, partner 0.5 µg/mL	–	0.932	0.98	0.957

N[C@@H]1CONC1=O [Cycloserine D] + CC(=O)NC[C@H]1CN(c2ccc(N3CCOCC3)c(F)c2)C(=O)O1 [Linezolid]
fitness
Settings	first compound 0.125 µg/mL	first compound 0.25 µg/mL	first compound 0.375 µg/mL	first compound 0.5 µg/mL	first compound 0.75 µg/mL	first compound 1.5 µg/mL
B. subtilis 168, partner 0.125 µg/mL	0.566	0.574	–	0.562	–	–
B. subtilis 168, partner 0.25 µg/mL	0.135	0.115	–	0.13	–	–
B. subtilis 168, partner 0.5 µg/mL	0.0466	0.0569	–	0.0486	–	–
S. aureus DSM 20231, partner 0.125 µg/mL	–	–	0.913	–	0.837	0.885
S. aureus DSM 20231, partner 0.25 µg/mL	–	–	0.517	–	0.597	0.537
S. aureus DSM 20231, partner 0.5 µg/mL	–	–	0.162	–	0.168	0.162

fitness, one replicate
Settings	first compound 0.125 µg/mL	first compound 0.25 µg/mL	first compound 0.375 µg/mL	first compound 0.5 µg/mL	first compound 0.75 µg/mL	first compound 1.5 µg/mL
B. subtilis 168, partner 0.0625 µg/mL	0.943	0.866	–	0.846	–	–
S. aureus DSM 20231, partner 1 µg/mL	–	–	0.0372	–	0.0417	0.0279
